Common to all, as to assay type: in vivo
One assay relates to mice. The experiment in a line: Anti-depression effect in the tested models (overall conclusion). The note with it: in the tested model at the tested dose. An excerpt:
Based on the aforesaid experiments, the following conclusion can be drawn: • 1.

Assay [1] concerns C57BL/6 mice. The experiment in a line: Forced swimming experiment in mice. The note with it: for Immobility time in the forced swimming test in mice(s): 30 min after last administration, end of 2nd min to 6th min. The protocol:
After 1˜2 days of adaptive feed, 80 male C57BL/6 mice, aged 6˜8 weeks and weighing 18˜22 g, were placed into the YLS-1A multi-functional mice autonomic activity recorder. After 1 min of adaption, the activity of the mice was counted within a time period from the end of 1st min to 4th min. 60 mice with the number of autonomic activity between 70˜140 were screened out, divided randomly into 6 groups, and intragastrically administrated with the drug compounds at a dose listed in Table 5, one time daily for 7 days consecutively. The solvent control group was administrated with 2% Tween-80 aqueous solution in the same volume. After the administration at 6th day, the mice were placed into a cylindrical aquarium with a water depth of 10 cm and 25° C. to force the mice to swim. After 15 min, the mice were taken out, dried and returned to the cage. 24 hours later, 30 min after the last intragastrical administration, the mice were placed into a glass bottle with a diameter of 10 cm, a height of 30 cm and a water depth of 10 cm, and the temperature of the water in the bottle was at 25° C. The mice were separated with an opaque partition, so as not to influence each other. After 2 min of adaption, an accumulated immobility time from the end of 2nd min to 6th min was recorded.

In assay [2] the test system is C57BL/6 mice. The experiment in a line: "Acquired despair" depression model of tail suspension test in mice. The note with it: for Effect on immobility time in tail suspension test (in words): 10 mg/kg intragastric for 7 days, compared with the solvent control group; for Effect on antagonizing immobility in tail suspension test compared with I-1 (in words): 10 mg/kg, compared with I-1, p<0.05. The protocol:
30 min after administration at 7th day, the mice was fixed on a sustainer with a rubberized cloth at 1 cm close to the end of the tail of mice, making the mice hanged upside down. The head of the mice was about 30 cm above the table and its sight was separated from the neighboring mouse with a plate. Usually, the mice might manage to struggle in hopes of overcoming the abnormal body position. […] The accumulated immobility time within 6 min of each mouse was observed, which was regarded as “despair time”.
(§1) 130 mice were randomly selected to observe the number of their autonomic activity. The method was the same with that of Experiment 1. 108 mice with the number of autonomic activity between 70˜140 were screened out, divided randomly into 9 groups, and intragastrically administrated with the drug compounds at a dose listed in Table 2, one time daily for 7 days consecutively. The solvent control group was administrated with 2% Tween-80 aqueous solution in the same volume. 30 min after administration at 6th day, the number of the autonomic activity of each mouse was observed. 30 min after administration at 7th day, the immobility time in tail suspension test was observed. The method was the same with that in Experiment 1.

Assay [3] relates to C57BL/6 mice. The experiment in a line: Number of autonomic activity of mice (YLS-1A autonomic activity recorder). The note with it: for Effect on autonomic activity of mice (in words): 10 mg/kg intragastric, one week, compared with the solvent control group; for Number of Autonomic activity (time): 10 mg/kg intragastric once daily, counted 30 min after administration at 6th day. The protocol: 110 mice were randomly selected to observe the number of their autonomic activity. The mice was placed into the YLS-1A multi-functional mice autonomic activity recorder, and after 1 min of adaption, the mice's activity was counted within a time period from the end of 1st min to 4th min. 96 mice with the number of autonomic activity between 70˜140 were screened out, divided randomly into 8 groups, and intragastrically administrated with the drug compounds at a dose listed in Table 1, one time daily for 7 days consecutively. The solvent control group was administrated with 2% Tween-80 aqueous solution in the same volume. All mice were placed into the autonomic activity recorder 30 min after administration at 6th day. After 1 min of adaption, the mice's activity was counted within a time period from the end of 1st min to 4th min.
as §1

Assay [4] concerns C57BL/6 mice. The experiment in a line: Depression model test of anti-blepharoptosis caused by reserpine (akinesia, blepharoptosis, shell temperature). The note with it: for Blepharoptosis, “out-of-circle” ratio and shell temperature after reserpine (effect in words) / Change in the shell temperature (ΔT ° C.) / Degree of eye-closure / responders at 10 mg/kg / Change in the shell temperature (T ° C.): 10 mg/kg intragastric 7 days; for Blepharoptosis, “out-of-circle” ratio and shell temperature after reserpine (effect in words): compared with the solvent control group; for Degree of eye closure / blepharoptosis after reserpine compared with I-1 (in words) / “out-of-circle” ratio after reserpine compared with I-1 (in words) / Improving akinesia, blepharoptosis and shell temperature: ranking among the tested compounds (in words) / Blepharoptosis, shell temperature and “out-of-circle” ratio compared with Compound I-1 (in words): 10 mg/kg; for “out-of-circle” ratio after reserpine compared with I-1 (in words): compared with I-1, p<0.05; for Improving akinesia, blepharoptosis and shell temperature: ranking among the tested compounds (in words): within the experiment; for Change in the shell temperature (ΔT ° C.) / Degree of eye-closure / responders at 10 mg/kg / Change in the shell temperature (T ° C.): reserpine 4 mg/kg i.p.; for Change in the shell temperature (ΔT ° C.) / Change in the shell temperature (T ° C.): abdomen, two hours after reserpine; for Change in the shell temperature (ΔT ° C.) / Degree of eye-closure / Change in the shell temperature (T ° C.): ±SD; for Degree of eye-closure: score 0-4 one hour after reserpine; for responders at 10 mg/kg: Mus musculus, po, 1 h, one hour after reserpine, 7.5 cm circle, 15-second observation, read-out: “out-of-circle” ratio; for Blepharoptosis, shell temperature and “out-of-circle” ratio compared with Compound I-1 (in words): compared with I-1, p<0.05, p<0.01. The protocol: 120 male C57BL/6 mice were randomly selected to observe the number of their autonomic activity. The mice was placed into the YLS-1A multi-functional mice autonomic activity recorder, and after 1 min of adaption, the activity of the mice was counted within a time period from the end of 1st min to 4th min. 96 mice with the number of autonomic activity between 70˜140 were screened out, divided randomly into 8 groups, and intragastrically administrated with the drug compounds at a dose listed in Table 3, one time daily for 7 days consecutively. The solvent control group was administrated with 2% Tween-80 aqueous solution in the same volume. Except the normal control group, 30 min after the last administration, each group was injected intraperitoneally with reserpine at a dose of 4 mg/kg. Next, akinesia, blepharoptosis and shell temperature were observed.
I Akinesia: one hour after intraperitoneal injection of reserpine, the mice were placed at the center of a circle with a diameter of 7.5 cm for a 15-second observation to calculate the “out-of-circle” ratio.
II Blepharoptosis: one hour after intraperitoneal injection of reserpine, the eye closure of mice was observed and scored by the following standard: eyelids open, 0; eyelids ¼ closed, 1; eyelids 2/4 closed, 2; eyelids ¾ closed, 3; eyelids closed completely, 4.
III Shell temperature: two hours after intraperitoneal injection of reserpine, the shell temperature of the abdomen of the mice was measured.
120 C57BL/6 mice were randomly selected to observe the number of their autonomic activity. The method was the same with that of Experiment 1. 100 mice with the number of autonomic activity between 70˜140 were screened out, divided randomly into 10 groups, and intragastrically administrated with the drug compounds at a dose listed in Table 4, one time daily for 7 days consecutively. The mice in the normal group and the solvent control group were administrated with 2% Tween-80 aqueous solution in the same volume. Except the normal control group, 30 min after the last administration, each group was injected intraperitoneally with reserpine at a dose of 4 mg/kg. Next, akinesia, blepharoptosis and shell temperature were observed. Observation method was the same with that of Experiment 1.

Setting [5] is: Experiment 1, end of 1st min to 4th min.

Entries after “also recorded” stand apart in the source; their conditions may differ. Like-named read-outs stand apart in the source and are kept apart here. Marks after values point to notes of the source that are not given here.

For the compound `CC(C)CNC(=O)/C=C/c1cc2c(c(C(F)(F)F)c1)OCO2` [Compound I-5, N-isobutyl-5′-trifluoromethyl-3′,4′-methylenedioxy cinnamamide], the “Anti-depression effect compared with the pharmacologic effect of I-1 (in words)” value in the assay on mice is recorded as “increased to some degree”. Moreover, the “Immobility time in the forced swimming test in mice(s)” value in the assay with C57BL/6 mice [1] (5 mg/kg (low dose) intragastric once daily for 7 days) is 91.20 ± 43.09 s. In the assay with C57BL/6 mice [1] (10 mg/kg intragastric once daily for 7 days), the “Immobility time in the forced swimming test in mice(s)” value is 78.58 ± 35.70 s. Besides, the “Dose dependence of the effect on immobility time in the forced swimming test” value in the assay on C57BL/6 mice [1] (5 and 10 mg/kg) is reported as “dose-dependent effect”. Further, in the assay with C57BL/6 mice [1] (within the dosage range (5-10 mg/kg), compared with the solvent control group), the “Effect on immobility time in the forced swimming test (in words)” value is recorded as “shortening the immobility time; also recorded: shorten the immobility time”. Besides, in the assay on C57BL/6 mice [2], the “Effect on immobility time in tail suspension test (in words)” value is on record as “remarkably reduce the immobility time; also recorded: reduce the immobility time of the mice in tail suspension test significantly; also recorded: significantly shorten the immobility time” and the “Effect on antagonizing immobility in tail suspension test compared with I-1 (in words)” value was “better effect”. Further, in the assay on C57BL/6 mice [3], the “Effect on autonomic activity of mice (in words)” value (“Effect on autonomic activity” for short) is on record as “had no affect; also recorded: had no effect”. The “Number of Autonomic activity (time)” value in the assay on C57BL/6 mice [3] (setting [5]) stood at 94.75 ± 23.98 time. In the assay with C57BL/6 mice [3] (Experiment 2), the “Number of Autonomic activity (time)” value is 99.40 ± 19.67 time. Also, in the assay with C57BL/6 mice [4], the “Blepharoptosis, “out-of-circle” ratio and shell temperature after reserpine (effect in words)” value was “improved significantly; also recorded: antagonizing the decrease of shell temperature, akinesia and improving the degree of eye closure”; the “Degree of eye closure / blepharoptosis after reserpine compared with I-1 (in words)” value is recorded as “reduced”; the ““out-of-circle” ratio after reserpine compared with I-1 (in words)” value is listed as “increased markedly”; the “Improving akinesia, blepharoptosis and shell temperature: ranking among the tested compounds (in words)” value (shortened to “Improving akinesia”) is recorded as “best effect”. Besides, in the assay on C57BL/6 mice [4] (Experiment 1), the “Change in the shell temperature (ΔT ° C.)” value was 1.32 ± 0.16 °C, the Degree of eye-closure is recorded as 0.42 ± 0.79**^ΔΔ and the responders at 10 mg/kg was found to be 92%.
`CC(C)CNC(=O)c1cc2c(c(C(F)(F)F)c1)OCO2` [Compound I-12, N-isobutyl-5-trifluoromethyl-3,4-methylenedioxy benzamide]: the “Anti-depression effect compared with the pharmacologic effect of I-1 (in words)” value in the assay with mice was “increased to some degree”. Further, the “Effect on immobility time in tail suspension test (in words)” value with C57BL/6 mice [2] is given as “reduce the immobility time of the mice in tail suspension test significantly; also recorded: significantly shorten the immobility time”. Besides, the “Effect on autonomic activity” value with C57BL/6 mice [3] is “had no effect”. In addition, the “Number of Autonomic activity (time)” value with C57BL/6 mice [3] (Experiment 2) turned out to be 93.20 ± 19.54 time. Also, in the assay with C57BL/6 mice [4], the “Blepharoptosis, “out-of-circle” ratio and shell temperature after reserpine (effect in words)” value is “remarkably improve; also recorded: antagonizing the decrease of shell temperature, akinesia and improving the degree of eye closure”; the “Blepharoptosis, shell temperature and “out-of-circle” ratio compared with Compound I-1 (in words)” value is recorded as “significantly improved effect”; the “Improving akinesia” value is “better effects”. Besides, in the assay with C57BL/6 mice [4] (Experiment 2), the “Change in the shell temperature (T ° C.)” value was 30.65 ± 1.16 °C, the Degree of eye-closure came to 1.50 ± 1.18 and the responders at 10 mg/kg was 70%.
On to `CC(C)CNC(=O)CCc1cc2c(c(C(F)(F)F)c1)OCO2` [Compound I-11, N-isobutyl-3-(5′-trifluoromethyl-3′,4′-methylenedioxyphenyl)-propionamide], for which, in the assay with mice, the “Anti-depression effect compared with the pharmacologic effect of I-1 (in words)” value is recorded as “increased to some degree”. In addition, the “Effect on immobility time in tail suspension test (in words)” value in the assay with C57BL/6 mice [2] is on record as “reduce the immobility time of the mice in tail suspension test significantly; also recorded: significantly shorten the immobility time”. For the same compound, the “Effect on autonomic activity” value with C57BL/6 mice [3] was “had no effect”. The “Number of Autonomic activity (time)” value in the assay on C57BL/6 mice [3] (Experiment 2) stood at 86.60 ± 23.08 time. For the same compound, in the assay with C57BL/6 mice [4], the “Blepharoptosis, “out-of-circle” ratio and shell temperature after reserpine (effect in words)” value was “remarkably improve; also recorded: antagonizing the decrease of shell temperature, akinesia and improving the degree of eye closure”; the “Blepharoptosis, shell temperature and “out-of-circle” ratio compared with Compound I-1 (in words)” value was “significantly improved effect”; the “Improving akinesia” value is recorded as “better effects”. In addition, in the assay with C57BL/6 mice [4] (Experiment 2), the “Change in the shell temperature (T ° C.)” value worked out at 30.20 ± 0.95 °C, the Degree of eye-closure was 1.40 ± 0.97 and the responders at 10 mg/kg was 50%.
Regarding `CC(C)CNC(=O)/C=C/c1cc(Cl)c2c(c1)OCO2` [Compound I-4, N-isobutyl-5′-chloro-3′,4′-methylenedioxy cinnamamide], in the assay on mice, the “Anti-depression effect compared with the pharmacologic effect of I-1 (in words)” value is “increased to some degree”. In addition, in the assay on C57BL/6 mice [2], the “Effect on immobility time in tail suspension test (in words)” value is “remarkably reduce the immobility time; also recorded: significantly shorten the immobility time” and the “Effect on antagonizing immobility in tail suspension test compared with I-1 (in words)” value is reported as “better effect”. Further, in the assay on C57BL/6 mice [3], the “Effect on autonomic activity” value is “had no affect”. In the assay on C57BL/6 mice [3] (setting [5]), the “Number of Autonomic activity (time)” value was found to be 94.75 ± 28.53 time. Moreover, in the assay with C57BL/6 mice [4], the “Blepharoptosis, “out-of-circle” ratio and shell temperature after reserpine (effect in words)” value was “improved significantly; also recorded: antagonizing the decrease of shell temperature, akinesia and improving the degree of eye closure”; the “Degree of eye closure / blepharoptosis after reserpine compared with I-1 (in words)” value is “reduced”; the ““out-of-circle” ratio after reserpine compared with I-1 (in words)” value is given as “increased markedly”; the “Improving akinesia” value is reported as “best effect”. Besides, in the assay on C57BL/6 mice [4] (Experiment 1), the “Change in the shell temperature (ΔT ° C.)” value was found to be 1.51 ± 0.31 °C, the Degree of eye-closure is 0.17 ± 0.39**^ΔΔ and the responders at 10 mg/kg was 100%.

The values are drawn from patent US10071989B2, “Substituted cinnamamide derivative, preparation method and use thereof” (TASLY PHARMACEUTICAL GROUP CO., LTD., priority 2011, dated 2018).
